Experimental data from publication PMC3050703 (Cancer chemotherapy and pharmacology, 2010).
Read-outs that look alike come from different tables or passages of the source.

Columns and labels:
[1] = target: T315I mutant Abl kinase; settings: read-out: Ki T315I mutant Abl; ref [3]; cited from earlier work
[2] = test system: xenografts of leukemia, pancreatic cancer, and colon cancer; settings: ref [1]; cited from earlier work
[3] = test system: HCT116 colon cancer; settings: ref [1], cited from earlier work
[4] = Plasma pharmacokinetics in patients; format: in vivo, human; settings: for clearance / half-life / Vd / Cmax: human, plasma, intravenous
[5] = target: Aurora kinase A; settings: read-out: Ki Aurora kinase A; ref [3]; cited from earlier work
[6] = target: Abl; settings: read-out: Ki Abl; ref [3]; cited from earlier work
[7] = test system: MCF-7 cells; settings: read-out: IC50 proliferation of transformed MCF-7 cells; ref [1]; cited from earlier work
[8] = test system: advanced solid tumors; test: Anti-tumor activity per RECIST in patients; format: in vivo, human
[9] = Dose Level 1 (4 mg/m^2/hr), N=1, any cycle, regardless of attribution
[10] = Dose Level 2 (8 mg/m^2/hr), N=2, any cycle, regardless of attribution
[11] = Dose Level 3 (16 mg/m^2/hr), N=2, any cycle, regardless of attribution
[12] = Dose Level 4 (32 mg/m^2/hr), N=3, any cycle, regardless of attribution
[13] = Dose Level 5 (45 mg/m^2/hr), N=4, any cycle, regardless of attribution
[14] = Dose Level 6 (64 mg/m^2/hr), N=2, any cycle
[15] = Dose Level 6 (64 mg/m^2/hr), N=2, any cycle, regardless of attribution
[16] = Dose Level 6 (oral 100 mg) (64 mg/m^2/hr), N=7, any cycle
[17] = Dose Level 6 (oral 100 mg) (64 mg/m^2/hr), N=7, any cycle, regardless of attribution
[18] = Dose Level 7 (96 mg/m^2/hr), N=6, any cycle
[19] = Dose Level 7 (96 mg/m^2/hr), N=6, any cycle, regardless of attribution

Cc1cc(Nc2cc(N3CCN(C)CC3)nc(Sc3ccc(NC(=O)C4CC4)cc3)n2)[nH]n1 [MK-0457]
Ki [1]: 42 nM
dose limiting toxicity (96 mg/m^2/hr 24-hour CIV infusion (dose level 7)): grade 4 neutropenia and grade 3 herpes zoster
maximum tolerated dose (MTD) (24-hour CIV infusion every 21 days, patients with advanced solid tumors): 64 mg/m^2/hr
number of patients with Fatigue Grade 2 [9]: 1
number of patients with Nausea Grade 3 [9]: 1
number of patients with Vomiting Grade 3 [9]: 1
number of patients with Arthralgia Grade 2 [10]: 1
number of patients with Back pain Grade 2 [10]: 1
number of patients with Fatigue Grade 2 [10]: 1
number of patients with Hypoalbuminemia Grade 2 [10]: 1
number of patients with Increased alk phos (alkaline phosphatase) Grade 2 [10]: 1
number of patients with Urinary tract infection Grade 2 [10]: 1
number of patients with Diarrhea Grade 2 [11]: 1
number of patients with Nausea Grade 3 [11]: 1
number of patients with Vomiting Grade 3 [11]: 1
number of patients with Arthralgia Grade 2 [12]: 1
number of patients with Diarrhea Grade 2 [12]: 1
number of patients with Fatigue Grade 2 [12]: 1
number of patients with Nausea Grade 2 [12]: 1
number of patients with Vomiting (printed on the heading line, no grade) [12]: 1
number of patients with Neutropenia Grade 3 (Dose Level 5 (45 mg/m^2/hr), N=4, any cycle): 1
number of patients with Back pain Grade 2 [13]: 1
number of patients with Dyspnea Grade 2 [13]: 1
number of patients with Fatigue Grade 2 [13]: 2
number of patients with Hypophosphatemia Grade 3 [13]: 1
number of patients with Nausea Grade 2 [13]: 1
number of patients with Vomiting (printed on the heading line, no grade) [13]: 1
number of patients with Leukopenia Grade 3 [14]: 1
number of patients with Neutropenia Grade 3 [14]: 1
number of patients with Arthralgia Grade 2 [15]: 1
number of patients with Fatigue Grade 3 [15]: 1
number of patients with Hyperglycemia Grade 3 [15]: 1
number of patients with Hypoalbuminemia Grade 2 [15]: 1
number of patients with Hypophosphatemia Grade 2 [15]: 1
number of patients with Urinary tract infection Grade 2 [15]: 1
number of patients with Leukopenia Grade 3 [16]: 1
number of patients with Neutropenia Grade 3 [16]: 1
number of patients with Arthralgia Grade 4 [17]: 1
number of patients with Back pain Grade 2 [17]: 1
number of patients with Diarrhea Grade 3 [17]: 2
number of patients with Dyspnea Grade 2 [17]: 2
number of patients with Fatigue Grade 2 [17]: 5
number of patients with Hyperglycemia Grade 2 [17]: 1
number of patients with Hyperglycemia Grade 3 [17]: 1
number of patients with Hypoalbuminemia Grade 2 [17]: 1
number of patients with Hypophosphatemia Grade 2 [17]: 2
number of patients with Hypophosphatemia Grade 3 [17]: 1
number of patients with Nausea Grade 2 [17]: 2
number of patients with Urinary tract infection Grade 2 [17]: 1
number of patients with Vomiting Grade 3 [17]: 2
number of patients with Anemia Grade 3 [18]: 1
number of patients with Leukopenia Grade 3 [18]: 3
number of patients with Neutropenia Grade 3 [18]: 1
number of patients with Neutropenia Grade 4 [18]: 1
number of patients with Diarrhea Grade 2 [19]: 1
number of patients with Dyspnea Grade 3 [19]: 1
number of patients with Fatigue Grade 2 [19]: 3
number of patients with Hypoalbuminemia Grade 3 [19]: 1
number of patients with Increased alk phos (alkaline phosphatase) Grade 2 [19]: 1
number of patients with Urinary tract infection Grade 2 [19]: 1
prolongation of the QTc (ECG pre-dose and after 24-hour infusion, cycle 1): not observed
febrile neutropenia (all dose levels, any cycle): no cases
patients with dose reduced due to toxicity (of 27 patients (11%)): Three
patients with treatment delayed or dose reduced due to toxicity (of 27 patients (15%)): 4 patients
patients with serious adverse events regardless of attribution (of 27 patients (33%), all dose levels): 9 patients
deaths on study or within 30 days of follow-up (patients who received MK-0457): no deaths
adverse events at least possibly related to study drug after oral dose (single 100 mg capsule, between oral dose and start of CIV infusion, 7 patients): No adverse events
tumor response in nude mice xenografts [2]: marked tumor regression
marked tumor regression, number of HCT116 nude rat models [3]: 4 of 7
Total AUC ([4]; 24-hour CIV 16 mg/m^2/hr, N=1, cycle 1): 18.8 µM·h
dose-adjusted AUC (average) ([4]; 24-hour CIV infusion): 0.0315 µM·h/mg
clearance [4]: 900 to 2320 mL/min
half-life [4]: 6.6 to 10.2 h
Vd ([4]; 8 mg/m2): 735 L
clearance ([4]; 8 mg/m2): 2320 mL/min
half-life ([4]; 8 mg/m2): 9.3 h
Cmax ([4]; 8 mg/m^2/hr): 274 nM
Vd ([4]; 16 mg/m2): 514 L
clearance ([4]; 16 mg/m2): 1690 mL/min
half-life ([4]; 16 mg/m2): 8.5 h
Cmax ([4]; 16 mg/m^2/hr): 911 nM
Vd ([4]; 32 mg/m2): 328 L
clearance ([4]; 32 mg/m2): 1160 mL/min
half-life ([4]; 32 mg/m2): 10.2 h
Cmax ([4]; 32 mg/m^2/hr): 2170 nM
Vd ([4]; 45 mg/m2): 429 L
clearance ([4]; 45 mg/m2): 1390 mL/min
half-life ([4]; 45 mg/m2): 10.2 h
Cmax ([4]; 45 mg/m^2/hr): 2670 nM
Vd ([4]; 64 mg/m2): 301 L
clearance ([4]; 64 mg/m2): 1270 mL/min
half-life ([4]; 64 mg/m2): 8 h
Cmax ([4]; 64 mg/m^2/hr): 4010 nM
Vd ([4]; 96 mg/m2): 248 L
clearance ([4]; 96 mg/m2): 893 mL/min
half-life ([4]; 96 mg/m2): 6.6 h
Cmax ([4]; 96 mg/m^2/hr): 7640 nM
Ki [6]: 30 nM
IC50 [7]: 15 to 113 nM
objective anti-tumor responses (RECIST) ([8]; all dose levels): no objective anti-tumor responses
patients with stable disease (2 or more cycles without progression) ([8]; all dose levels): 12 patients
